The source of these data is PubChem BioAssay AID2619 (Sanford-Burnham Center for Chemical Genomics, 2010).

This test relates to MDA-MB-435 TRAIL sensitization, ATPlite luminescence, 24 h. Kind of test: PubChem AID 2619.

With `CSc1nc(-c2ccc(C)cc2)nc(C(Cl)Cl)n1`, the cytotoxicity with TRAIL (at 10 µM (top of the series)) was 82%. The cytotoxicity (compound alone without TRAIL, at 10 µM, stronger effect = higher value) turned out to be 1%.
